Results published in ChEMBL document CHEMBL1201862, “PubChem BioAssay data set” (2004).
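Interpolation was linear, between the two tested concentrations surrounding the appropriate level; five concentrations were tested over 48 hours in 96-well plates. The concentration for 50% growth inhibition is given as GI50.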 Calls of active or inactive are those of the source. No stated cut-off is given here; in the data, active = GI50 up to about 1.1 µM and inactive = higher.

What was measured:
Assay in all cases: NCI anticancer screen, dose series, 48 h
HCT-15 = test system: HCT-15
SK-MEL-2 = test system: SK-MEL-2
UO-31 = test system: UO-31
UACC-62 = test system: UACC-62
SF-268 = test system: SF-268
OVCAR-4 = test system: OVCAR-4
MDA-MB-435 = test system: MDA-MB-435
HL-60 = test system: HL-60
SW-620 = test system: SW-620
NCI/ADR-RES = test system: NCI/ADR-RES
SNB-75 = test system: SNB-75
SK-MEL-28 = test system: SK-MEL-28
U-251 = test system: U-251
HCT-116 = test system: HCT-116
TK-10 = test system: TK-10
OVCAR-3 = test system: OVCAR-3
RXF 393 = test system: RXF 393
COLO 205 = test system: COLO 205
NCI-H23 = test system: NCI-H23
HT-29 = test system: HT-29
A498 = test system: A498
M14 = test system: M14
NCI-H226 = test system: NCI-H226
Malme-3M = test system: Malme-3M
SN12C = test system: SN12C
ACHN = test system: ACHN
SK-OV-3 = test system: SK-OV-3
BT-549 = test system: BT-549
MCF7 = test system: MCF7
RPMI-8226 = test system: RPMI-8226
DU-145 = test system: DU-145
K562 = test system: K562
HOP-92 = test system: HOP-92
T47D = test system: T47D
UACC-257 = test system: UACC-257
OVCAR-8 = test system: OVCAR-8
CAKI-1 = test system: CAKI-1
SF-295 = test system: SF-295
OVCAR-5 = test system: OVCAR-5
IGROV-1 = test system: IGROV-1
MDA-MB-231 = test system: MDA-MB-231
SNB-19 = test system: SNB-19
EKVX = test system: EKVX
PC-3 = test system: PC-3
786-0 = test system: 786-0
LOX IMVI = test system: LOX IMVI
HCC 2998 = test system: HCC 2998
NCI-H522 = test system: NCI-H522
Hs-578T = test system: Hs-578T
NCI-H460 = test system: NCI-H460
SK-MEL-5 = test system: SK-MEL-5
SF-539 = test system: SF-539
A549 = test system: A549
HOP-62 = test system: HOP-62

Fc1ccc2c(c1)SC1=Nc3sc4cc(F)ccc4[n+]3CN12
GI50 (HCT-15): 29.5 µM | GI50 (SK-MEL-2): 21.4 µM (inactive) | GI50 (UO-31): 19.1 µM (inactive) | GI50 (UACC-62): 11.1 µM (inactive) | GI50 (SF-268): 29.6 µM (inactive) | GI50 (OVCAR-4): 14.5 µM (inactive) | GI50 (MDA-MB-435): 39.6 µM (inactive) | GI50 (HL-60): < 0.01 µM (active) | GI50 (SW-620): 27.3 µM (inactive) | GI50 (NCI/ADR-RES): 18.2 µM (inactive) | GI50 (SNB-75): 15.9 µM (inactive) | GI50 (SK-MEL-28): 39.6 µM (inactive) | GI50 (U-251): 16.7 µM (inactive) | GI50 (HCT-116): 22.5 µM (inactive) | GI50 (TK-10): 18.8 µM (inactive) | GI50 (OVCAR-3): 14.3 µM (inactive) | GI50 (RXF 393): 26.5 µM (inactive) | GI50 (COLO 205): 26.9 µM (inactive) | GI50 (NCI-H23): 17.5 µM (inactive) | GI50 (HT-29): 28.8 µM (inactive) | GI50 (A498): 12.7 µM (inactive) | GI50 (M14): 25.8 µM (inactive) | GI50 (NCI-H226): 21.3 µM (inactive) | GI50 (Malme-3M): 18.7 µM (inactive) | GI50 (SN12C): 17.3 µM (inactive) | GI50 (ACHN): 20.6 µM (inactive) | GI50 (SK-OV-3): 22.4 µM (inactive) | GI50 (BT-549): 14.8 µM (inactive) | GI50 (MCF7): 21.6 µM (inactive) | GI50 (RPMI-8226): 0.437 µM (active) | GI50 (DU-145): 26.7 µM (inactive) | GI50 (K562): 14.3 µM (inactive) | GI50 (HOP-92): 17.1 µM (inactive) | GI50 (T47D): 13.7 µM (inactive) | GI50 (UACC-257): 18.9 µM (inactive) | GI50 (OVCAR-8): 14.6 µM (inactive) | GI50 (CAKI-1): 14.9 µM (inactive) | GI50 (SF-295): 32.1 µM (inactive) | GI50 (OVCAR-5): 25.7 µM (inactive) | GI50 (IGROV-1): 3.91 µM (inactive) | GI50 (MDA-MB-231): 13.9 µM (inactive) | GI50 (SNB-19): 16.4 µM (inactive) | GI50 (EKVX): 28 µM (inactive) | GI50 (PC-3): 21.4 µM (inactive) | GI50 (786-0): 18.3 µM (inactive) | GI50 (LOX IMVI): 18.4 µM (inactive) | GI50 (HCC 2998): 10.5 µM (inactive) | GI50 (NCI-H522): 12.1 µM (inactive) | GI50 (Hs-578T): 9.98 µM (inactive) | GI50 (NCI-H460): 25.5 µM (inactive) | GI50 (SK-MEL-5): 11.1 µM (inactive) | GI50 (SF-539): 12.7 µM (inactive) | GI50 (A549): 12.4 µM (inactive) | GI50 (HOP-62): 19.5 µM (inactive)
